Measurements published in patent US20250346588A1, “IMIDAZOPYRIDINE AND OXAZOLOPYRIDINE DERIVATIVES AND ANALOGS THEREOF, METHODS OF PREPARATION THEREOF, METHODS OF HIF-1/2A PATHWAY INHIBITION, AND INDUCTION OF FERROPTOSIS” (KUDA THERAPEUTICS, INC., priority 2022, published 2025).
pIC50: −log10 of the molar value.

target: HIF-2α transcriptional activity; assay: Hypoxia-responsive element-driven luciferase (HRE-Luc) screen; assay type: cell-based, human; details: 786-0 ccRCC cells stably expressing HRE-Luc; 24 h treatment; range of IC50 values
Procedure: Screens for inhibitory activity of compounds described herein were performed using 786-0 ccRCC cells that stably express HRE-Luc: 5 copies of the hypoxia-responsive element (HRE) fused to the pGL3 luciferase reporter (Promega Corp, Madison WI). 786-0 cells are pVHL deficient and thus constitutively express HIF-2α independently of cellular oxygen tension. Since 786-0 cells lack HIF-1α, HRE-driven luciferase activity is primarily HIF-2α driven, and has been previously validated. Cells were maintained at log phase growth in […] (DMEM) with 10% FBS in a humidified incubator at 37° C. with 5% CO2. For screening assays, cells were seeded at a density of 4,000 cells in 50 μl of complete media/well in quadruplicate wells/point in a 96-well plate. After 24 h, 50 μl of a 2× concentration of test compound was added to each well. Compounds were diluted from a 5-10 mM stock in DMSO and final concentrations of DMSO in each well in controls and treated wells were kept constant at ≤0.6% DMSO. After 24 h treatment, luciferase activity was measured using the Steady-Glo Luciferase assay system (Promega Corp) according to the manufacturer's protocol. Cell viability was measured in quadruplicate parallel wells using resazurin as recommended by the manufacturer (R&D systems, Minneapolis, MN). Data for luciferase and resazurin were normalized to DMSO treated controls (defining 100%) and wells containing assay reagent but no cells (defining 0%) and graphed using the log inhibitor versus normalized response option in Graphpad Prism 9.3.1 software. Representative data determined using Steady-Glo luciferase and resazurin are shown in FIGS. 1A and 1B respectively, with error bars showing SD. Filled diamonds, empty squares and empty triangles indicate treatment with 3, 8 and 22 respectively with results for HRE-Luc shown in FIG. 1A.

Q: With COc1nc(C)cc2[nH]c(Nc3nnc([C@H]4CC[C@H](OC)CC4)o3)nc12 [Compound 99, N-(4-methoxy-6-methyl-1H-imidazo[4,5-c]pyridin-2-yl)-5-((1r,4r)-4-methoxycyclohexyl)-1,3,4-oxadiazol-2-amine] as the compound, how does the pIC50 read?
A: Its pIC50 is greater than 5.00.

same assay, conditions: Homo sapiens, 786-0, 24 h, 786-0 ccRCC cells stably expressing HRE-Luc; 24 h treatment; range of IC50 values

Q: COc1ccc(-c2cnc(Nc3nc4c(OC)nccc4[nH]3)o2)cc1OC [Compound 59, 5-(3,4-dimethoxyphenyl)-N-(4-methoxy-1H-imidazo[4,5-c]pyridin-2-yl)oxazol-2-amine] was tested. Which pIC50 did it give?
A: Its pIC50 is 4.00 to 4.30.

Q: With COc1nccc2[nH]c(Nc3nnc([C@H]4CC[C@@H](OC)CC4)o3)nc12 [Compound 62, N-(4-methoxy-1H-imidazo[4,5-c]pyridin-2-yl)-5-((1s,4s)-4-methoxycyclohexyl)-1,3,4-oxadiazol-2-amine] as the compound, how does the pIC50 read?
A: The pIC50 was greater than 5.00.

Q: With COc1nccc2[nH]c(Nc3nnc([C@H]4CC[C@H](OC)CC4)o3)nc12 [Compound 63, N-(4-methoxy-1H-imidazo[4,5-c]pyridin-2-yl)-5-((1r,4r)-4-methoxycyclohexyl)-1,3,4-oxadiazol-2-amine] as the compound, how does the pIC50 read?
A: Its pIC50 is greater than 5.00.

Q: COc1nccc2nc(Nc3nnc(C4CCN(C)CC4)o3)[nH]c12 [Compound 64, N-(4-methoxy-3H-imidazo[4,5-c]pyridin-2-yl)-5-(1-methylpiperidin-4-yl)-1,3,4-oxadiazol-2-amine] was tested. Which pIC50 did it give?
A: Its pIC50 is greater than 5.00.

Q: How did the pIC50 turn out when COc1nccc2nc(Nc3nnc(N4CC(C)OC(C)C4)o3)[nH]c12 (stereo not drawn) [Compound 70, 5-(2,6-dimethylmorpholino)-N-(4-methoxy-3H-imidazo[4,5-c]pyridin-2-yl)-1,3,4-oxadiazol-2-amine] was run?
A: Its pIC50 is greater than 5.00.

Q: With COc1cccc2nc(Nc3nnc(N4CCC(OC)CC4)o3)[nH]c12 [Compound 71, N-(7-methoxy-1H-benzo[d]imidazol-2-yl)-5-(4-methoxypiperidin-1-yl)-1,3,4-oxadiazol-2-amine] as the compound, how does the pIC50 read?
A: Its pIC50 is greater than 5.00.

Q: How did the pIC50 turn out when COc1cccc2nc(Nc3nnc(N4CCOCC4)o3)[nH]c12 [Compound 72, N-(7-methoxy-1H-benzo[d]imidazol-2-yl)-5-morpholino-1,3,4-oxadiazol-2-amine] was run?
A: The pIC50 was 4.30 to 5.00.

Q: With COc1cccc2[nH]c(Nc3nnc(N4CCN(C)CC4)o3)nc12 [Compound 73, N-(4-methoxy-1H-benzo[d]imidazol-2-yl)-5-(4-methylpiperazin-1-yl)-1,3,4-oxadiazol-2-amine] as the compound, how does the pIC50 read?
A: The pIC50 was 4.00 to 4.30.

Q: How did the pIC50 turn out when COc1cccc2nc(Nc3nnc(C4CCN(C)CC4)o3)[nH]c12 [Compound 74, N-(7-methoxy-1H-benzo[d]imidazol-2-yl)-5-(1-methylpiperidin-4-yl)-1,3,4-oxadiazol-2-amine] was run?
A: Its pIC50 is 4.30 to 5.00.

Q: COc1cccc2[nH]c(Nc3nnc(N4CCS(=O)(=O)CC4)o3)nc12 [Compound 76, 4-(5-((4-methoxy-1H-benzo[d]imidazol-2-yl)amino)-1,3,4-oxadiazol-2-yl)thiomorpholine 1,1-dioxide] was tested. Which pIC50 did it give?
A: The pIC50 was less than 4.00.

Q: How did the pIC50 turn out when COc1ccc(-c2nnc(Nc3nc4cccc(OC)c4[nH]3)o2)cc1 [Compound 82, N-(7-methoxy-1H-benzo[d]imidazol-2-yl)-5-(4-methoxyphenyl)-1,3,4-oxadiazol-2-amine] was run?
A: The pIC50 was 4.30 to 5.00.

Q: How did the pIC50 turn out when COc1ccc(-c2nnc(Nc3nc4c(OC)cccc4[nH]3)o2)c(C)c1 [Compound 83, N-(4-methoxy-1H-benzo[d]imidazol-2-yl)-5-(4-methoxy-2-methylphenyl)-1,3,4-oxadiazol-2-amine] was run?
A: The pIC50 was less than 4.00.

Q: COc1ccc(-c2nnc(Nc3nc4c(OC)cccc4[nH]3)o2)cc1OC [Compound 84, 5-(3,4-dimethoxyphenyl)-N-(4-methoxy-1H-benzo [d]imidazol-2-yl)-1,3,4-oxadiazol-2-amine] was tested. Which pIC50 did it give?
A: The pIC50 was greater than 5.00.

Q: How did the pIC50 turn out when COc1ccc(-c2nnc(Nc3nc4c(OC)cccc4[nH]3)o2)cc1F [Compound 85, 5-(3-fluoro-4-methoxyphenyl)-N-(4-methoxy-1H-benzo[d]imidazol-2-yl)-1,3,4-oxadiazol-2-amine] was run?
A: The pIC50 was less than 4.00.

Q: COc1cccc2[nH]c(Nc3nnc(-c4ccc5c(c4)OCCO5)o3)nc12 [Compound 86, 5-(2,3-dihydrobenzo[b][1,4]dioxin-6-yl)-N-(4-methoxy-1H-benzo[d]imidazol-2-yl)-1,3,4-oxadiazol-2-amine] was tested. Which pIC50 did it give?
A: The pIC50 was 4.00 to 4.30.

Q: With COc1cccc2[nH]c(Nc3nnc(-c4ccc5c(c4)CCO5)o3)nc12 [Compound 87, 5-(2,3-dihydrobenzofuran-5-yl)-N-(4-methoxy-1H-benzol[d]imidazol-2-yl)-1,3,4-oxadiazol-2-amine] as the compound, how does the pIC50 read?
A: Its pIC50 is 4.30 to 5.00.

Q: How did the pIC50 turn out when CCOc1ccc(-c2nnc(Nc3nc4c(OC)cccc4[nH]3)o2)cc1OCC [Compound 88, 5-(3,4-diethoxyphenyl)-N-(4-methoxy-1H-benzo[d]imidazol-2-yl)-1,3,4-oxadiazol-2-amine] was run?
A: The pIC50 was less than 4.00.

Q: COc1cccc2[nH]c(Nc3nnc(-c4ccc5occc5c4)o3)nc12 [Compound 89, 5-(benzofuran-5-yl)-N-(4-methoxy-1H-benzo[d]imidazol-2-yl)-1,3,4-oxadiazol-2-amine] was tested. Which pIC50 did it give?
A: The pIC50 was less than 4.00.

Q: With COc1cccc2[nH]c(Nc3nnc(N4C[C@H](C)C[C@H](C)C4)o3)nc12 [Compound 92, 5-((3R,5S)-3,5-dimethylpiperidin-1-yl)-N-(4-methoxy-1H-benzo[d]imidazol-2-yl)-1,3,4-oxadiazol-2-amine] as the compound, how does the pIC50 read?
A: The pIC50 was less than 4.00.

Q: COc1cccc2nc(Nc3nnc(C4CCC(C(C)(C)C)CC4)o3)[nH]c12 (stereo not drawn) [Compound 94, 5-(4-(tert-butyl)cyclohexyl)-N-(7-methoxy-1H-benzo[d]imidazol-2-yl)-1,3,4-oxadiazol-2-amine] was tested. Which pIC50 did it give?
A: The pIC50 was greater than 5.00.

Q: With COc1cccc2nc(Nc3nnc(C4C[C@H]5CC[C@@H]4C5)o3)[nH]c12 (stereo partly drawn) [Compound 96, 5-((1R,4S)-bicyclo[2.2.1]heptan-2-yl)-N-(7-methoxy-1H-benzo[d]imidazol-2-yl)-1,3,4-oxadiazol-2-amine] as the compound, how does the pIC50 read?
A: Its pIC50 is 4.30 to 5.00.

Q: With [2H]C([2H])([2H])Oc1ccc(-c2nnc(Nc3nc4c(OC)nccc4[nH]3)o2)cc1OC([2H])([2H])[2H] [Compound 97, 5-(3,4-Dimethoxy-d3-phenyl)-N-(4-methoxy-1H-imidazo[4,5-c]pyridin-2-yl)-1,3,4-oxadiazol-2-amine] as the compound, how does the pIC50 read?
A: Its pIC50 is greater than 5.00.

Q: With COc1nc(C)cc2[nH]c(Nc3nnc([C@H]4CC[C@@H](OC)CC4)o3)nc12 [Compound 100, N-(4-methoxy-6-methyl-1H-imidazo[4,5-c]pyridin-2-yl)-5-((1s,4s)-4-methoxycyclohexyl)-1,3,4-oxadiazol-2-amine] as the compound, how does the pIC50 read?
A: The pIC50 was greater than 5.00.
